Numbers after ± are expanded uncertainties.
Legend:
[1] = 298.2 K; 101.33 kPa; Liquid; Vibrating tube method
[2] = Boiling temperature at pressure P; details: 101.33 kPa; Liquid
[3] = refractive index (Na D-line) (dimensionless); details: 298.2 K; 101.33 kPa; Liquid; Abbe refractometer

SMILES | mass density [1] [kg/m3] | Boiling temperature at pressure P [2] [°C] | refractive index [3]
CCO [ethanol] | 785.2 ± 0.2 | 78.00 ± 0.4 | 1.3595 ± 0.0015
C1CC[C@H]2CCCC[C@@H]2C1 [trans-decahydronaphthalene] | 868.25 ± 0.15 | 187.20 ± 0.4 | 1.4682 ± 0.0016
